Measured values as given in ChEMBL document CHEMBL1155011, “Structure-activity relationships of the cycloalkanol ethylamine scaffold: discovery of selective norepinephrine reuptake inhibitors” (J Med Chem, 2008).

Key:
[1] = molecular target: T1, Sodium-dependent dopamine transporter (Homo sapiens, UniProt Q01959); assay: Displacement of [3H]WIN-35428 from human recombinant dopamine transporter expressed in CHO cells at 1000 nM; format: cell-based
[2] = molecular target: T2, Sodium-dependent serotonin transporter (Homo sapiens, UniProt P31645); format: cell-based, JAR
Target sequence in this assay (P31645 whole entry): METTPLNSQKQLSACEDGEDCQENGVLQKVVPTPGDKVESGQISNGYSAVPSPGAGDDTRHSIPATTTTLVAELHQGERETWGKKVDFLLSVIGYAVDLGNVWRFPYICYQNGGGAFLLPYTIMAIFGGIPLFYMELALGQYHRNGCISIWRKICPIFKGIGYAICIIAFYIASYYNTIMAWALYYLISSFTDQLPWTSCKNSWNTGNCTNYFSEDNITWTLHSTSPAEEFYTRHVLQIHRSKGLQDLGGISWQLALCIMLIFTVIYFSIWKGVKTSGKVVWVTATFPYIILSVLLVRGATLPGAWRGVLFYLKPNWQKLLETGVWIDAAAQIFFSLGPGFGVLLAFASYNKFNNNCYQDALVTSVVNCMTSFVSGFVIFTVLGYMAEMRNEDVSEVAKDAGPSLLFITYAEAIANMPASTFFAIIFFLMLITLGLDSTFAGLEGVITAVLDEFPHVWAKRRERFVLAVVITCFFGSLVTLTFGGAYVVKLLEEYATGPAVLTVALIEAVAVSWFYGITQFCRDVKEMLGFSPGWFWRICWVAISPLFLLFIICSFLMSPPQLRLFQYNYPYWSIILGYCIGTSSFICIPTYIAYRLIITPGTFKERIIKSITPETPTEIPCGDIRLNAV

[3] = molecular target: T3, Sodium-dependent noradrenaline transporter (Homo sapiens, UniProt P23975); assay: biochemical
Description: Displacement of [3H]nisoxetine from human norepinephrine transporter expressed in MDCK-Net6 cells

[4] = molecular target: T3, Sodium-dependent noradrenaline transporter; assay: Inhibition of norepinephrine uptake at human norepinephrine transporter expressed in MDCK-Net6 cells at 1000 nM; format: cell-based
[5] = molecular target: T1, Sodium-dependent dopamine transporter; assay: biochemical
[6] = molecular target: T3, Sodium-dependent noradrenaline transporter
[7] = molecular target: T2, Sodium-dependent serotonin transporter; assay: Inhibition of 5HT uptake at human SERT expressed in human JAR cells at 1000 nM; format: cell-based
Target sequence in this assay (P31645 whole entry, looked up): as the sequence (P31645 whole entry) above

T1 sequence (Q01959 whole entry): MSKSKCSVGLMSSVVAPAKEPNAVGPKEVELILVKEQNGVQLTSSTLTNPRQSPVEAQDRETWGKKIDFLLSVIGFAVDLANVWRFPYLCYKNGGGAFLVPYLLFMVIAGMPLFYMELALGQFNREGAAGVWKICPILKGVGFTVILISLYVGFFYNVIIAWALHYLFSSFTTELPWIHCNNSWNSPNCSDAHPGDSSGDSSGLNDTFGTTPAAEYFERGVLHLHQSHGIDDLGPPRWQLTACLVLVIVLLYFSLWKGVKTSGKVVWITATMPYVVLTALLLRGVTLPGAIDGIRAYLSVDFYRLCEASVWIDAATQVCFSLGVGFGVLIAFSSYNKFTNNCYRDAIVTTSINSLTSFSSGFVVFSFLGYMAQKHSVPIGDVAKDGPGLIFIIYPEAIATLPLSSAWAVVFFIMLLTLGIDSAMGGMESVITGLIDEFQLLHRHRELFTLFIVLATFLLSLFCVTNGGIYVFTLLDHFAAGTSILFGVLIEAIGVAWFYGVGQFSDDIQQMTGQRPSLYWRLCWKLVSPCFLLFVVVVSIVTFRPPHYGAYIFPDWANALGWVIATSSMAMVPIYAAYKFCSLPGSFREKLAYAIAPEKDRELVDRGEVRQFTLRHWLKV
T3 sequence (P23975 whole entry): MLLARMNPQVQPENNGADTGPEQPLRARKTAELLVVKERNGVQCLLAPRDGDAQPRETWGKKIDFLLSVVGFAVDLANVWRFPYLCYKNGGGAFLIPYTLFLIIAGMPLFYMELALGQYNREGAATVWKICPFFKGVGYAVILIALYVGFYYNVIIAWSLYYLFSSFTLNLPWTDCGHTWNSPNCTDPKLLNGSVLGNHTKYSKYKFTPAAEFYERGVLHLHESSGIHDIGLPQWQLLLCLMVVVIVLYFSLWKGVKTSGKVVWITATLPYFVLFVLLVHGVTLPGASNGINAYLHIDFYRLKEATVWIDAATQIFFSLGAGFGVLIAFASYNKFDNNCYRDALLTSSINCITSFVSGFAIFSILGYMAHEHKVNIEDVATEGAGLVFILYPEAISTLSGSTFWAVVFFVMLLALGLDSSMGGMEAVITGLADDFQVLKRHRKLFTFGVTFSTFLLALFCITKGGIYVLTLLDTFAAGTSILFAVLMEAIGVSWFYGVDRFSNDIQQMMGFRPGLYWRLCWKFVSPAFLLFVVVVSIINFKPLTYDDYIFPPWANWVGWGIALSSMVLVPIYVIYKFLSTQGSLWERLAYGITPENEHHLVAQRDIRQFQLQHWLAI

Structure (SMILES) | Activity [1] | IC50 [2] | Ki [3] | inhibition [4] | Ki [5] | IC50 [6] | inhibition [7]
OC1(C(CN2CCNCC2)c2ccc(Cl)cc2)CCCCC1 (stereo unspecified) | 35% | 1520 nM | 717 nM | 29% | – | – | –
CN1CCN(C[C@@H](c2cccc(Cl)c2)C2(O)CCCCC2)CC1 | – | – | 187 nM | – | 235 nM | 577 nM | 0%
CN1CCN(CC(c2ccc(F)cc2)C2(O)CCCCC2)CC1 (stereo unspecified) | 0% | – | 1380 nM | – | – | 1450 nM | 32%
OC1(C(CN2CCNCC2)c2cccc(C(F)(F)F)c2)CCCCC1 (stereo unspecified) | 4% | – | 58 nM | – | – | 94 nM | 13%
